# Measured values reported in publication PMC8571951, “An activity‐based bioprobe differentiates a novel small molecule inhibitor from a LOXL2 antibody and provides renewed promise for anti‐fibrotic therapeutic strategies” (Clinical and Translational Medicine, 2021).
# Experiment: Tissue levels after single oral dose in the rat
# Type: in vivo
# Conditions: single oral dose 30 mg/kg, 1 and 4 h
# Protocol: FIGURE 2 Characteristics of PXS‐5338 and inhibition of lysyl oxidase‐like 2 (LOXL2) enzymatic activity in vitro and in vivo. (A) Chemical structure of PXS‐5338. […] (B) Tissue levels of PXS‐5338 measured 1 and 4 h after a single oral dose of 30 mg/kg in the rat. […] Average data from three different animals. (C) Concentration‐dependent inhibition of native […] LOX and rh LOXL1‐4 in a standard Amplex Red assay with 30 min pre‐incubation; n ≥3 independent experiments, standard error of mean (SEM). (D) PXS‐5338 inhibits rh LOXL2 in a time‐dependent manner, with increasing potency observed upon longer incubation with the enzyme. LOXL2 activity data devised from Amplex Red assay using putrescine as substrate and varying pre‐incubation times; n ≥3 independent experiments, standard error of mean (SEM). […] AB0023 and the corresponding isotype control antibody GS834298 were kindly provided by Gilead. Concentration‐response curves for the pan‐LOX inhibitor BAPN and LOXL2‐selective inhibitor PXS‐5338 are included for comparison. Data represented as mean ± SD with n = 5/concentration. […] To enable translation of preclinical data into the clinic, human plasma was incubated with different concentrations of PXS‐5338 for 30 min and the PXS‐5878/Simoa® platform used to measure the residual activity. […]
compound,measurement,value
CC(C)c1c(Cc2ccc(S(C)(=O)=O)nc2)c2ncccc2n1C/C(F)=C/CN [PXS‐5338],Tissue penetration / distribution,"good penetration, with preferential distribution to the liver followed by the kidney, lung and heart"
